Reference: patent US8937072B2, “Substituted cyanoaniline compounds, preparation and use thereof” (Sinochem Corporation, priority 2011, dated 2015)
Like-named read-outs stand apart in the source and are kept apart here.

Columns and labels:
[1] = test system: plasmopora viticola; settings: at high dose; cited from earlier work
[2] = test system: cucumber downy mildew; test: Protectant activity in vivo (whole plant) against cucumber downy mildew; settings: Cucumis sativus, 168 h; for pest or weed control at 12.5 µg/mL: 12.5 mg/L; for pest or weed control at 400 µg/mL: dose 400 mg/L
Summary of the method: (§1)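 Compound stock in organic solvent (≤5% v/v) diluted in water with 0.1% Tween-80 and sprayed onto whole host plants. Fungal inoculation 24 h later; humidity chamber then greenhouse as the pathogen requires. Activity rated visually, usually after 7 days.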

[3] = test system: wheat powdery mildew; test: Protectant activity in vivo (whole plant) against wheat powdery mildew; settings: Triticum aestivum, 168 h; for pest or weed control at 400 µg/mL: dose 400 mg/L
Procedure: The method is as followed: The whole plant is used in this test. The compound is dissolved in a proper solvent to get mother solution. The proper solvent is selected from acetone, methanol, DMF and so on according to their dissolving capability to the sample. The volume rate of solvent and testing solution (v/v) is equal to or less than 5%. The mother solution is diluted with water containing 0.1% tween-80 to get the testing solution whose concentration is designed. The testing solution is sprayed to the host plant by a special plant sprayer. The plant is inoculated with fungus after 24 hours. According to the infecting characteristic of fungus, the plant is stored in a humidity chamber and then transferred into greenhouse after infection is finished. And the other plants are placed in greenhouse directly. The activity of compound is obtained by eyeballing after 7 days in common.

[4] = test system: cucumber gray mold; test: Activity in vitro (96-well, High Through Put): inhibition rate against cucumber gray mold; format: cell-based; settings: for inhibition at 0.3 µg/mL: 0.3 mg/L; for inhibition at 0.9 µg/mL: 0.9 mg/L; for inhibition at 25 µg/mL: dose 25 mg/L
Summary of the method: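 Compound in acetone, methanol or DMF was combined with pathogen suspension under sterile conditions and held in a constant-temperature box. After 24 hours germination or growth was scored by eye against an untreated control to give the inhibition rate.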

[5] = test system: corn rust; test: Protectant activity in vivo (whole plant) against corn rust; settings: Zea mays, 168 h; for pest or weed control at 6.25 µg/mL: 6.25 mg/L; for pest or weed control at 25 µg/mL: 25 mg/L; for pest or weed control at 100 µg/mL: 100 mg/L
Summary of the method: as §1

[6] = test system: rice blast; test: microbe, parasite or virus in culture; format: cell-based; settings: Pyricularia oryzae; for inhibition at 25 µg/mL: read-out: inhibition rate against rice blast; for inhibition at 0.03 µg/mL: read-out: the inhibition rate against rice blast (%) 0.03 mg/L; for inhibition at 0.1 µg/mL: read-out: the inhibition rate against rice blast (%) 0.1 mg/L; for inhibition at 0.3 µg/mL: read-out: the inhibition rate against rice blast (%) 0.3 mg/L
[7] = test system: canker of citrus fruit; settings: at 500 ppm; cited from earlier work
[8] = test system: pear scab; settings: in vivo; cited from earlier work
[9] = test system: blast of rice; settings: at 500 ppm; cited from earlier work
[10] = 25 mg/L, read-out: the protectant activity (%) against cucumber downy mildew
[11] = 50 mg/L, read-out: the protectant activity (%) against cucumber downy mildew
[12] = 100 mg/L, read-out: the protectant activity (%) against cucumber downy mildew
[13] = read-out: the inhibition rate against cucumber gray mold (%)
[14] = 2.8 mg/L, read-out: the inhibition rate against cucumber gray mold (%)
[15] = 8.3 mg/L, read-out: the inhibition rate against cucumber gray mold (%)
[16] = 400 mg/L, read-out: the protectant activity (%) against corn rust
[17] = dose 400 mg/L, read-out: protectant activity against corn rust in vivo
[18] = dose 25 mg/L, read-out: protectant activity against cucumber downy mildew in vivo
[19] = dose 50 mg/L, read-out: protectant activity against cucumber downy mildew in vivo
[20] = dose 100 mg/L, read-out: protectant activity against cucumber downy mildew in vivo

Row | Structure (SMILES) | pest or weed control at 12.5 µg/mL [2] [%] | pest or weed control at 25 µg/mL [2, 10] [%] | pest or weed control at 50 µg/mL [2, 11] [%] | pest or weed control at 100 µg/mL [2, 12] [%] | pest or weed control at 400 µg/mL [3] [%] | inhibition at 0.3 µg/mL [4] [%] | inhibition at 0.9 µg/mL [4, 13] [%] | inhibition at 2.8 µg/mL [4, 14] [%] | inhibition at 8.3 µg/mL [4, 15] [%] | inhibition at 25 µg/mL ([4]; in vitro) [%] | pest or weed control at 6.25 µg/mL [5] [%] | pest or weed control at 25 µg/mL [5] [%] | pest or weed control at 100 µg/mL [5] [%] | pest or weed control at 400 µg/mL [5, 16] [%] | pest or weed control at 400 µg/mL [5, 17] [%] | inhibition at 25 µg/mL [6] [%] | inhibition at 0.03 µg/mL [6] [%] | inhibition at 0.1 µg/mL [6] [%] | inhibition at 0.3 µg/mL [6] [%] | pest or weed control at 25 µg/mL [2, 18] [%] | other results
1 | N#Cc1c(Cl)c(Cl)c(Nc2ccccc2)c(C#N)c1Cl [KC1] | 0 | 0 | 0 | 0 | 0 | 0 | 0 | 0 | 0 | 0 | 0 | 0 | 0 | 0 | 0 | 0 | 0 | 0 | 0 | – | activity on relevant diseases such as plasmopora viticola [1]: some activity; pest or weed control at 400 µg/mL [2]: 0%
2 | N#Cc1c(Cl)c(Cl)c(Nc2ccc([N+](=O)[O-])cc2)c(C#N)c1Cl [KC5] | 0 | 0 | – | – | 0 | 0 | 0 | – | – | 0 | 0 | 0 | – | – | 0 | – | 0 | 0 | 0 | 0 | pest or weed control at 50 µg/mL [2, 19]: 20%
3 | N#Cc1c(F)c(F)c(Nc2ccccc2)c(C#N)c1F [KC7] | 0 | 0 | 10 | 20 | 0 | 0 | 0 | 0 | 0 | – | – | – | – | – | – | – | 0 | 0 | 0 | 0 | pest or weed control at 50 µg/mL [2, 19]: 10%; pest or weed control at 100 µg/mL [2, 20]: 20%; bacteriostatic diameter against canker of citrus fruit [7]: 13.8 mm; inhibition at 8.3 µg/mL ([4]; in vitro, dose 8.3 mg/L, read-out: inhibition rate against cucumber gray mold): 0%; control against pear scab [8]: 100%; bacteriostatic diameter against blast of rice [9]: 22.5 mm
4 | N#Cc1c(F)c(F)c(Nc2ccc(Cl)c(Cl)c2)c(C#N)c1F [KC12] | 0 | 0 | 0 | 0 | 0 | 0 | 0 | 0 | 80 | – | 0 | 0 | 0 | 0 | 0 | 0 | 0 | 0 | 0 | – | pest or weed control at 100 µg/mL [2, 20]: 20%; bacteriostatic diameter against canker of citrus fruit [7]: 0 mm; inhibition at 2.8 µg/mL ([4]; in vitro, dose 2.8 mg/L, read-out: inhibition rate against cucumber gray mold): 0%; bacteriostatic diameter against blast of rice [9]: 15.5 mm
5 | N#Cc1c(Cl)c(Cl)c(Nc2ccccc2)c(Cl)c1C#N [KC14] | 0 | 0 | 0 | 0 | 30 | 0 | 0 | 0 | 0 | 0 | 0 | 0 | 0 | 0 | 0 | – | 0 | 0 | 0 | – | activity on relevant diseases such as plasmopora viticola [1]: some activity; pest or weed control at 100 µg/mL [2, 20]: 0%; pest or weed control at 100 µg/mL ([3]; dose 100 mg/L): 0%
6 | N#Cc1c(Cl)c(Cl)c(C#N)c(Nc2ccccc2)c1Cl [KC15] | 0 | 0 | 10 | 20 | 0 | 0 | 0 | 0 | 0 | 0 | 0 | 0 | 0 | 0 | 0 | – | 0 | 0 | 0 | 0 | activity on relevant diseases such as plasmopora viticola [1]: some activity; pest or weed control at 50 µg/mL [2, 19]: 10%; pest or weed control at 100 µg/mL [2, 20]: 20%
7 | N#Cc1ccc(Nc2c(Cl)c(F)c(C#N)c(F)c2C#N)cc1 [KC21] | – | – | – | 70 | 0 | 0 | 0 | 0 | 0 | 0 | – | – | – | 80 | – | 0 | 0 | 0 | 0 | – | –
8 | N#Cc1c(F)c(Cl)c(Nc2ccc([N+](=O)[O-])cc2)c(C#N)c1F [KC22] | 0 | 0 | 0 | 0 | 0 | 0 | 0 | 0 | 0 | 0 | – | 0 | 0 | 0 | 0 | 0 | 0 | 0 | 0 | – | pest or weed control at 400 µg/mL [2]: 0%
9 | N#Cc1c(Cl)c(Cl)c(C#N)c(Cl)c1Cl [STM-1] | 0 | 0 | 0 | 0 | 0 | 0 | 0 | 0 | 0 | 0 | 0 | 0 | 0 | 0 | 0 | 0 | 0 | 0 | 0 | – | pest or weed control at 400 µg/mL [2]: 0%
10 | N#Cc1c(Cl)c(Cl)c(Cl)c(Cl)c1C#N [STM-2] | – | – | – | – | 0 | 0 | 0 | 0 | 0 | 0 | – | – | – | 70 | – | 50 | – | – | 50 | 10 | –
